Common to all, as to experiment: NCI tumour cell line growth inhibition, 48 h
Experiment [1] concerns 786-0 renal.
Experiment [2] has as its system CCRF-CEM leukemia.
Experiment [3] concerns HOP-92 NSCLC.
The subject of experiment [4] is LOX IMVI melanoma.
Experiment [5] relates to NCI-H522 lung.
For experiment [6], the system named is PC-3 prostate.
In experiment [7] the test system is SF-268 CNS.
Experiment [8] concerns SN12C renal.
For experiment [9], the system named is SR leukemia.
The subject of experiment [10] is UACC-62 melanoma.

Structures are written as SMILES. Values joined by “and” are separate entries in the source; they are usually repeats but may differ in a detail not shown here. Equal values may be shown once.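 Where inhibition never reached the appropriate level, the endpoint shown equals the highest concentration tested. Otherwise, values were interpolated linearly from a five-concentration, 48-hour dose response in 96-well plates. The concentration for 50% growth inhibition is given as GI50. Definition used: TGI = concentration required for complete inhibition of growth.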

Take `NC(CS/C(Cl)=C/Cl)C(=O)O` (centres undefined): the GI50 in experiment [1] was greater than 100 µM; in experiment [2] it was 20.3 µM; in experiment [3], 33.2 µM; in experiment [4], 1.02 µM; in experiment [5], greater than 55.6 µM; in experiment [6], 34.3 µM. For the same compound, the GI50 in [7] is greater than 76.5 µM; in experiment [8], 43.3 µM; in experiment [9] it was 34.9 µM; in [10], 57 µM. Moreover, the TGI is greater than 100 µM in experiment [1]; greater than 100 µM in [2]; greater than 100 µM in experiment [3]; 4.34 µM in experiment [4]; greater than 100 µM in [5]; greater than 100 µM in experiment [6]. Further, the TGI in experiment [7], in experiment [8], in [9] and in [10] was greater than 100 µM in each case.

For the compound `NC(N)=NCCCCCNc1noc(Cc2c[nH]c3cc(Br)ccc23)n1`, the GI50 in experiment [1] is 23 µM; in [2] it was 13.9 µM; in experiment [3], 2.96 µM; in experiment [4] it was 10.6 µM; in [5], 13.6 µM; in [6], 2.57 µM. Also, the GI50 is 3.54 µM in [7], 3.87 µM in [8], 13.8 µM in experiment [9] and 7.48 µM in [10]. For the same compound, the TGI turned out to be 86.3 µM in experiment [1]; 39.5 µM in [2]; 46.7 µM in experiment [3]; 45.2 µM in experiment [4]; 46.5 µM in experiment [5]; 79.6 µM in [6]. Besides, the TGI in experiment [7] stood at 27.8 µM; in [8] it was 18.8 µM; in experiment [9] it was 40 µM; in experiment [10] it was 28.1 µM.

As to `COc1ccc2c(O)cc3c(c2c1)[C@H](CCl)CN3C(=O)c1cc2cc(NC(=O)CCN3CCOCC3)ccc2[se]1`, the GI50 in [1], in [2], in experiment [3], in experiment [4], in experiment [5] and in [6] was less than 0.001 µM each time. Further, the GI50 in experiment [7], in experiment [8], in experiment [9] and in experiment [10] was less than 0.001 µM in each case. For the same compound, the TGI was less than 0.001 µM in [1]; 0.00216 µM in experiment [3]; 0.0101 µM in [4]; 0.0298 µM in [5]; 0.0699 µM in [6]; 0.0946 µM in [7]. In addition, the TGI in experiment [8] was 0.0334 µM; in [9], greater than 10 µM; in experiment [10] it was less than 0.001 µM.

With `CC(=O)O[C@H](C[C@H](C(C)C)N(C)C(=O)[C@@H](NC(=O)[C@H]1CCCCN1C)C(C)C)c1nc(C(=O)N[C@@H](Cc2ccccc2)C[C@H](C)C(=O)O)c(CCOCc2ccccc2)s1`, the GI50 in [1], in experiment [2], in experiment [3], in experiment [4], in experiment [5] and in experiment [6] was less than 0.001 µM each time. Also, the GI50 in [7], in [8], in experiment [9] and in [10] was less than 0.001 µM each time. Moreover, the TGI in [1] was greater than 10 µM; in [2], greater than 10 µM; in experiment [3] it was greater than 10 µM; in experiment [4], greater than 10 µM; in [5], less than 0.001 µM; in [6], greater than 10 µM. Moreover, the TGI in [7], in experiment [8], in [9] and in experiment [10] was greater than 10 µM in each case.

With `CCC(C)(C)c1ccc(OCCCCCCN2CCNCC2)cc1`, the GI50 is 1.73 µM in experiment [1]; 1.43 µM in [2]; 1.21 µM in experiment [3]; 1.76 µM in experiment [4]; 2.23 µM in experiment [5]; 2.6 µM in experiment [6]. Further, the GI50 was 3.78 µM in [7], 3.48 µM in experiment [8], 1.25 µM in experiment [9] and 1.76 µM in experiment [10]. The TGI in experiment [1] was found to be 3.23 µM; in experiment [2], 4.64 µM; in experiment [3] it was 6.82 µM; in experiment [4] it was 3.21 µM; in [5], 5.67 µM; in [6], 13.8 µM. Also, the TGI in experiment [7] was 14 µM; in experiment [8], 13.5 µM; in experiment [9], 3.71 µM; in experiment [10] it was 3.52 µM.

As to `COc1cc(CNc2ccc(SC)cc2)cc(OC)c1OC`, the TGI is 77.2 µM and 65.8 µM in experiment [1]; greater than 90.6 µM in experiment [2]; > 96.1 µM and 47.6 µM in experiment [3]; > 59.7 µM and 45.9 µM in experiment [4]; 29.3 µM and 11 µM in experiment [5]; > 100 µM and 47.7 µM in experiment [6]. Besides, the TGI in experiment [7] was > 100 µM and 69.3 µM; in experiment [8], greater than 100 µM; in experiment [9], greater than 100 µM; in experiment [10], > 80.7 µM and 51.1 µM. Moreover, the GI50 in [3] was 15.2 µM and 6.16 µM; in experiment [7], 19.9 µM and 7.47 µM; in experiment [8] it was 19.3 µM and 9.07 µM; in [9] it was 4.17 µM and 1.63 µM; in experiment [10], 10.7 µM and 4.64 µM.

Regarding `COc1ccc(-c2oc3cc(O)c(OC)c(O)c3c(=O)c2OC)cc1O`, the GI50 in [1] is 0.578 µM; in [2], 0.343 µM; in experiment [3], 3.46 µM; in [4], 0.0766 µM; in experiment [5] it was 0.0589 µM; in experiment [6], 4.44 µM. Also, the GI50 in [7] is 0.0754 µM; in experiment [8], 0.212 µM; in experiment [9], 0.039 µM; in [10] it was 0.311 µM. Also, the TGI in [1] was 7.42 µM; in experiment [2] it was greater than 100 µM; in [3] it was greater than 100 µM; in experiment [4], greater than 100 µM; in experiment [5], 7.87 µM; in experiment [6], greater than 100 µM. The TGI in experiment [7], in experiment [8], in experiment [9] and in experiment [10] was greater than 100 µM throughout.

Consider `O=C(Nc1ccc(CO)cc1)c1coc2ccccc2c1=O`, for which the GI50 in experiment [1] is greater than 100 µM; in [2] it was greater than 100 µM; in [3], 29.4 µM; in [4] it was greater than 100 µM; in experiment [5] it was greater than 100 µM; in [6], greater than 100 µM. The GI50 in [7], in [8], in experiment [9] and in experiment [10] was greater than 100 µM in each case. Further, the TGI in experiment [1], in experiment [2], in [3], in experiment [4], in experiment [5] and in [6] was greater than 100 µM throughout. Also, the TGI in experiment [7], in experiment [8], in experiment [9] and in [10] was greater than 100 µM each time.

Source of the values: PubChem BioAssay (NCI).
